Experimental data published in paper PMC8318231, “Rate-of-Kill (RoK) assays to triage large compound sets for Chagas disease drug discovery: Application to GSK Chagas Box” (PLoS Neglected Tropical Diseases, 2021).

Tested on: T. cruzi intracellular amastigotes in H9c2 cells
Experiment: Rate-of-Kill (RoK) high-content imaging assay, amastigotes per cell (AM/CELL) and curve descriptors
Format: cell-based, Trypanosoma cruzi
Parameters: key to ME_24h / ME_48h / ME_72h: % reduction in parasite burden (cidal response); t50pct_MCC50 / t50pct_Cmax: unit not given here
Conditions: for ME_24h: 24h; for ME_48h: 48h; for ME_72h: 72h; for AM/CELL NORM: sheet figure 4 A; for t50%_Cmax / tlag_Cmax / t50pct_Cmax: at Cmax; for ME_24h (%): maximum effect at 24 h; for ME_24h (%) / ME_48h (%) / ME_72h (%): RoK assay; for ME_48h (%): maximum effect at 48 h; for ME_72h (%): maximum effect at 72 h; for ME 24h (maximum effect at 24 hours, intracellular amastigotes): maximum percentage of parasite burden reduction reached by any concentration
Procedure: For this high-content intracellular imaging assay, H9c2 cells were seeded in 225 cm^2 T- FLASK in DMEM with 10% FBS for 4 h to allow attachment. T. cruzi trypomastigotes, collected at days 5 to 8 after infection from LLC-MK2 parasite infected cultures, were allowed to swim out for 4 h at 37°C from a centrifuged pellet (1,600 x g / 10 min). Trypomastigotes were then collected and counted in a CASY Cell Counter using the 60 μm capillary. Trypomastigotes, in supplemented DMEM, were added to H9c2 cultures in a multiplicity of infection (MOI) of 8 and incubated for 18 h. Cells were washed once with PBS before incubation of the infected H9c2 monolayer with trypsin (Life-Technologies) to detach cells from the flask. Cells were counted in a CASY Cell Counter, using the 150 μm capillary, and their density set at 5 x 10^4 cells/mL in supplemented DMEM. Infected H9c2 were dispensed into 384-well plates at 50 μL per well using a Multidrop Combi dispenser. Control wells used to determine a 100% parasitic growth (full 6th column of each plate) were left untreated, whereas not infected cells were added in the control wells used as 0% parasite growth (or 100% parasite growth inhibition; full 18th column of each plate). The four plates corresponding to each RoK assay were predispensed for the same mother plate. […] Cultures were then fixed and stained with 50 μL per well of a PBS solution containing 4% formaldehyde and 2 μM DRAQ5 DNA dye (BioStatus, UK). Then plates were read in a PerkinElmer Opera Phenix using a 20x objective, 3 fields per well. DRAQ5 signal was detected using 640 nm excitation laser and a 690/50 nm emission detection filter. Automated image analysis was performed with a script developed on Acapella High Content Imaging and Analysis Software (PerkinElmer). Two outputs were provided for each sample well: (1) number of host cells nuclei to determine drug-related cytotoxicity (aka H9c2) and (2) number of amastigotes per cell as infection level measurement (aka AM/CELL). Each output is plotted as a time course for each compound at every concentration. This assay was adapted from Alonso-Padilla et al. and Peña et al..
To identify and classify the different compounds, the number of amastigotes per cell (AM/CELL) raw data obtained in rate of kill assay are normalised using the average of C1 (infected cells) at time 4 hours as 0% effect and the average of C2 (non-infected cells) for each time as 100% effect, according to the following Eq 1: %CIDALRESPONSE=100*[Avg_C14h-RawData]/[Avg_C14h-Avg_C2] (1)
• ME (Maximum Effect) is the maximum percentage of parasite burden reduction reached by any compound concentration. Compounds that decrease the initial parasite load will show a positive value of ME, whereas compounds that allow the progression of infection will render a negative ME value. […] It is calculated for the MCC50 (t50%_MCC50) and for the maximum concentration (t50%_Cmax). […] The value of this parameter is not either interpolated or extrapolated, and it refers to the first experimental time-course point at which a 50% of effect is reached or exceeded. • tlag defines the time elapsed for one particular concentration to reduce parasite burden between two consecutive points at any moment of the time course. It is calculated for the MCC50 (tlag_MCC50) and for the maximum concentration (tlag_Cmax). The value of this parameter is not either interpolated or extrapolated, and it refers to the first experimental time-course point of a positive slope in the normalised plot (i.e. %Cidal_Response). • Cmin_Tox (Minimal CytoToxic Concentration) is the lowest compound concentration that is reducing the number of host mammalian cells below 50% of initial cell density. Cytotoxic compounds may mislead a bona fide antiparasitic action.

Row | SMILES | ME_24h (figure 5) | ME_48h (figure 5) | ME_72h (figure 5) | MCC50 (RoK curve descriptor) | MCCE (RoK curve descriptor) | AM/CELL NORM (Time 4) | AM/CELL NORM (Time 24) | AM/CELL NORM (Time 48) | AM/CELL NORM (Time 72) | tlag_Cmax | t50pct_Cmax (figure 5) | tlag_Cmax (figure 5) | t50pct_MCC50 (at MCC50, figure 5) | tlag_MCC50 (at MCC50, figure 5) | MCC50 (figure 5) | MCCE (figure 5) | ME_24h (%) | ME_48h (%) | ME_72h (%) | ME 24h (maximum effect at 24 hours, intracellular amastigotes) | other results
1 | O=C(CSc1ccc(F)cc1)N[C@@H](Cc1cnc[nH]1)C(=O)NCCc1ccccc1.O=C(O)C(F)(F)F [TCMDC-143317] | -217.337 | -137.825 | 44.5659 | 50.0 µM | 1.2 µM | -0.3431 | -195.022 | -169.506 | 59.3586 | 24.0 h | 72 | 24 | 72 | 48 | 50 µM | 1.235 | -217.3% | -137.8% | 44.6% | -157.067% | t50%_Cmax: 72.0 h; t50%_MCC50 (at MCC50): 72.0 h; tlag_MCC50 (at MCC50): 24.0 h
2 | CCOc1cnn(C)c(=O)c1Nc1ccc(C(=O)NCc2ccc(F)cc2)cc1 [TCMDC-143319] | -74.4049 | -82.6884 | 13.1125 |  | 0.2 µM | -4.52 | -105.903 | -82.6884 | -13.3312 | 24.0 h | 72 | 24 | 72 | 72 | 50 µM | 0.2058 | -74.4% | -82.7% | 13.1% | -74.4049% | 
3 | c1ccc(CCNCc2cncc3nc(-c4cnccn4)n(C4CCCCC4)c23)cc1 [TCMDC-143346] | -174.15 | -60.952 | 17.2662 |  | 0.2 µM | -7.276 | -174.15 | -60.952 | 6.4629 | 24.0 h | 72 | 24 | 72 | 72 | 50 µM | 0.2058 | -174.2% | -61.0% | 17.3% | -174.15% | 
4 | CNc1c(C(N)=O)c(-c2ccc3scnc3c2)nn1CC(F)(F)F.O=C(O)C(F)(F)F [TCMDC-143463] | -5.4236 | -24.264 | 4.63 |  | 0.2 µM | 20.0861 | -5.743 | -19.2942 | 13.2045 | 48.0 h | 72 | 48 | 72 | 72 | 50 µM | 0.2058 | -5.4% | -24.3% | 4.6% | -5.104% | 
5 | CN(C)CCOc1ccc(N2CCN(S(=O)(=O)c3ccc(Cl)cc3)CC2)cc1 [TCMDC-143622] | 11.982 | 63.0909 | 72.2951 | 1.9 µM | 1.9 µM | 6.264 | 11.982 | 63.0909 | 55.0876 | 4.0 h | 48 | 4 | 72 | 24 |  | 1.852 | 12.0% | 63.1% | 72.3% | 11.982% | t50%_Cmax: 48.0 h; t50%_MCC50 (at MCC50): 72.0 h; tlag_MCC50 (at MCC50): 24.0 h; MCC50 (figure 5, in µM): 1.852
